From paper PMC10303920, “Competition between skin antimicrobial peptides and commensal bacteria in type 2 inflammation enables survival of S. aureus” (Cell reports, 2023)
No end group written: not given here.

Tests used:
[1] = test system: AMP gene expression at wound edge; assay: AMP response to partial-thickness skin wounds of mice treated by MC903; type: in vivo, Balb/c mice; settings: MC903 or vehicle for 14 days, scratched by 18 gauge needle, biopsy at wound edge after 48 hours; Figure S3
Description: All experiments involving live animals were done with the approval of the Institutional Animal Care and Use Guidelines of the University of California, San Diego (Protocol number: S09074). To investigate influences of distinct type of skin inflammation on the microbial community on the skin surface, we employed Th2 and Th17 inflammation models using mixed sex of Il4ra^−/− Balb/c (Jackson Laboratory, ME), Camp^−/− Balb/c,[4] Flg^ft/ft Balb/c or WT Balb/c mice (Jackson Laboratory) (6–8 weeks). Mice were housed under a specific pathogen-free condition with 12hr light/12hr dark cycle at 20–22°C and 30–70% humidity. Mice were randomly selected, the back skin was shaved, treated with depilatory cream, rinsed with water, cleaned with alcohol swab twice. To induce Th2 inflammation, MC903 (50μL of 90μM in ethanol) was applied to the back skin of WT, Il4ra^−/− or Camp^−/− mice every day for 14 days. […] The dorsal skin was disinfected with alcohol swabs twice, applied with a 6-mm TSB agar disc containing 1 × 10^6 CFU of S. aureus (ATCC35556), and covered with Tegaderm wound dressing film for initial 24 h for quantitative bacterial application. […] The mRNA expression of each gene was evaluated by qPCR and normalized to GAPDH expression (key resources table). page 4: Figure S3. […] P-value (*P<0.05 and **P<0.01) was calculated by two-tailed unpaired parametric t-test. […]

S. aureus (ATCC35556) [2] = assay: Survival of S. aureus on mouse skin in inflammation models; type: in vivo, Balb/c mice
Description: All experiments involving live animals were done with the approval of the Institutional Animal Care and Use Guidelines of the University of California, San Diego (Protocol number: S09074). To investigate influences of distinct type of skin inflammation on the microbial community on the skin surface, we employed Th2 and Th17 inflammation models using mixed sex of Il4ra^−/− Balb/c (Jackson Laboratory, ME), Camp^−/− Balb/c,[4] Flg^ft/ft Balb/c or WT Balb/c mice (Jackson Laboratory) (6–8 weeks). Mice were housed under a specific pathogen-free condition with 12hr light/12hr dark cycle at 20–22°C and 30–70% humidity. Mice were randomly selected, the back skin was shaved, treated with depilatory cream, rinsed with water, cleaned with alcohol swab twice. To induce Th2 inflammation, MC903 (50μL of 90μM in ethanol) was applied to the back skin of WT, Il4ra^−/− or Camp^−/− mice every day for 14 days. Control mice received equal volume of ethanol. Alternatively, a sterile patch (2 × 2cm) with OVA solution (100 μg/100 μL PBS) or PBS was placed on tape-stripped dorsal skin of Flg^ft/ft Balb/c mice (6–8 weeks, mixed sex) and covered with Tegaderm wound dressing film for 8 days (the patch was replaced every 2 days). Mice received 3 times of 8-day OVA exposures by 2-week intervals. […] The dorsal skin was disinfected with alcohol swabs twice, applied with a 6-mm TSB agar disc containing 1 × 10^6 CFU of S. aureus (ATCC35556), and covered with Tegaderm wound dressing film for initial 24 h for quantitative bacterial application. […]
Bacteria were cultured in tryptic soy broth (TSB) at 37°C overnight, washed with PBS, and re-suspended in PBS at 1 × 10^6 CFU/5μL. […] The entire dorsal skin was then covered with wound dressing film for quantitative bacterial application and to avoid contamination.[18] […]
Survival of S. aureus and CoNS were measured on Baird-Parker agar for S. aureus or mannitol salt agar with egg yolk for total Staphylococcus species using easySpiral automatic diluter plater with exponential mode or circle mode and automatic colony counter (Interscience Inc., France). […]

S. aureus (ATCC35556) [3] = assay: Survival of S. aureus on mouse skin after topical steroid; type: in vivo, Balb/c WT mice; settings: 0.1% triamcinolone topical at 24 and 32 h after S. aureus, read at 48 h; Figure 2L
Procedure: (§1) Back skin of Balb/c WT mice (8 weeks, female) were shaved and treated with MC903 as described above. After decontaminating the skin with alcohol swab twice, S. aureus (ATCC35556, 1 × 10^6 CFU) were applied with a TSB agar disc and whole back skin was covered with Tegaderm wound dressing film for 24 h. Tegaderm and the TSB disc were removed, and then 0.1% Triamcinolone (Perrigo) or Vaseline (50μg) were applied twice on back skin at 24 and 32 h after S. aureus were applied. Skin swab and biopsy was ob tained to measure S. aureus survival and immune response of the skin, respectively, at 48 h after bacteria application.
Survival of S. aureus and CoNS were measured on Baird-Parker agar for S. aureus or mannitol salt agar with egg yolk for total Staphylococcus species using easySpiral automatic diluter plater with exponential mode or circle mode and automatic colony counter (Interscience Inc., France). To determine total CoNS survival, CFUs on mannitol salt agar were subtracted by CFUs on Baird-Parker agar. To distinguish ShA9-WT and ShA9-ΔLanti mutant, CoNS colonies with pink color without halo were randomly picked from mannitol salt agar plate and conducted colony PCR with gene specific primers for ShA9-lantibiotic-α (key resources table).

[4] = test system: Il17a, Il4, Il13, Camp, Defb14, Defb4 expression; assay: qPCR of cytokine and AMP genes in mouse skin after topical steroid; type: in vivo, Balb/c WT mice; settings: topical triamcinolone
Procedure: as §1
To determine expression of mRNA for Il4, Il13, Il17a, Tslp, Defb4, […] or Camp, 6mm punch biopsy was obtained from the mouse back skin. Skin biopsy was stored in 1mL of RNAlater solution at −80°C. Total RNA was extracted with PureLink RNA extraction kit (ThermoScientific Fisher) and one μg of total RNA was reversely transcribed with VERSO cDNA synthesis kit (ThermoScientific Fisher). Predeveloped qPCR assay primer sets (IDT oligo, listed in key resources table) were used for analyzing the expressions of these genes. The mRNA expression of each gene was evaluated by qPCR and normalized to GAPDH expression (key resources table).

ShA9-WT and ShA9-ΔLanti = assay: Growth inhibition of ShA9-WT and ShA9-ΔLanti by human and murine AMPs (OD600); type: cell-based, Staphylococcus hominis; settings: 90% RPMI/10% TSB, 30°C, 24 h, mean of duplicate technical replicates, Figure 4E
Procedure: Staphylococcus strains collected from normal skin from healthy subjects or lesional skin from AD patients were cultured in TSB overnight. Bacteria were washed with PBS and resuspended to 90% RPMI media and 10% TSB. Bacteria (1 × 10^5 CFU/mL) were incu bated with or without human AMPs (LL-37, hBD-2, hBD-3) or mouse cathelin-related AMP (CRAMP) in 90% RPMI media and 10% TSB (100 μL) in each well of a 96-well plate at 30°C for 24 h. Bacterial growth was assessed by measuring OD600. Minimal inhibitory concentration was defined as the lowest concentration which prevent visible bacterial growth (<5% of OD600 value of the con trol well).

C=C1/C(=C\C=C2/CCC[C@]3(C)[C@@H]([C@H](C)/C=C/[C@@H](O)C4CC4)CC[C@@H]23)C[C@@H](O)C[C@@H]1O [MC903]
AMP response to skin wounding after MC903 [1]: suppressed
S. aureus survival on the skin after MC903 pretreatment relative to untreated mice (S. aureus (ATCC35556) [2]; WT Balb/c mice, MC903 50 μL of 90 μM daily for 14 days, S. aureus 1 × 10^6 CFU for 48 h, Figure S1G): increased

CC(C)Cn1cnc2c(N)nc3ccccc3c21 [imiquimod]
Protection against S. aureus on imiquimod-treated skin (S. aureus (ATCC35556) [2]; Flg^ft/ft mice, 5% imiquimod cream daily for 7 days, S. aureus for 48 hours, Figure S6): enhanced protection against S. aureus

C[C@]12C=CC(=O)C=C1CC[C@H]1[C@@H]3C[C@@H](O)[C@](O)(C(=O)CO)[C@@]3(C)C[C@H](O)[C@@]12F [triamcinolone]
Survival of S. aureus on MC903-pretreated mouse skin (S. aureus (ATCC35556) [3]): decreased survival of S. aureus
Il17a expression, healthy skin after S. aureus exposure ([4]; no MC903, Figure 2F): decreased
Camp expression, healthy skin after S. aureus exposure ([4]; no MC903, Figure 2I): decreased
Defb14 expression, healthy skin after S. aureus exposure ([4]; no MC903, Figure 2J): decreased
Il4 expression, skin with Th2 inflammation (MC903 and S. aureus) ([4]; Figure 2G): decreased
Il13 expression, skin with Th2 inflammation (MC903 and S. aureus) ([4]; Figure 2H): decreased
Camp expression, skin with Th2 inflammation (MC903 and S. aureus) ([4]; Figure 2I): increased
Defb14 expression, skin with Th2 inflammation (MC903 and S. aureus) ([4]; Figure 2J): increased
Defb4 expression, skin with Th2 inflammation (MC903 and S. aureus) ([4]; Figure 2K): increased

CRAMP (GLL-33)
Sensitivity of ShA9-WT to the AMP compared with ShA9-ΔLanti (growth inhibition) (ShA9-WT and ShA9-ΔLanti): more sensitive

human beta-defensin 2 [hBD-2]
Sensitivity of ShA9-WT to the AMP compared with ShA9-ΔLanti (growth inhibition) (ShA9-WT and ShA9-ΔLanti): more sensitive

human beta-defensin 3 (GIINTLQKYYCRVRGGRCAVLSCLPKEEQIGKCSTRGRKCCRRKK; ends and bridges not checked; cysteine pairing not given here; UniProt P81534 23-67, looked up) [hBD-3, human β-defensin, synthetic AMP (Peptide International)]
Sensitivity of ShA9-WT to the AMP compared with ShA9-ΔLanti (growth inhibition) (ShA9-WT and ShA9-ΔLanti): more sensitive

B1: ovalbumin (protein, UniProt P01012 2-386, looked up)
Ovalbumin: GSIGAASMEFCFDVFKELKVHHANENIFYCPIAIMSALAMVYLGAKDSTRTQINKVVRFDKLPGFGDSIEAQCGTSVNVHSSLRDILNQITKPNDVYSFSLASRLYAEERYPILPEYLQCVKELYRGGLEPINFQTAADQARELINSWVESQTNGIIRNVLQPSSVDSQTAMVLVNAIVFKGLWEKAFKDEDTQAMPFRVTEQESKPVQMMYQIGLFRVASMASEKMKILELPFASGTMSMLVLLPDEVSGLEQLESIINFEKLTEWTSSNVMEERKIKVYLPRMKMEEKYNLTSVLMAMGITDVFSSSANLSGISSAESLKISQAVHAAHAEINEAGREVVGSAEAGVDAASVSEEFRADHPFLFCIKHIATNAVLFFGRCVSP
notes: ovalbumin used for epicutaneous sensitization to induce Th2 inflammation
S. aureus survival on the skin after OVA sensitization relative to untreated mice (S. aureus (ATCC35556) [2]; Flg^ft/ft Balb/c mice, 100 μg OVA in 100 μL PBS, 3 exposure cycles, S. aureus 1 × 10^6 CFU for 48 h, Figure S1M): increased colonization by S. aureus
